Test results reported in patent US20220002309A1, “SSAO INHIBITORS AND USES THEREOF” (Metacrine, Inc., priority 2018, published 2022).

The compounds below were run against T1, Recombinant Human SSAO/VAP-1/AOC3 (Homo sapiens, UniProt Q16853) (assay: Human Semicarbazide-Sensitive Amine Oxidase (SSAO) Assay). Settings: recombinant enzyme; 30 minutes preincubation at 37° C.; benzylamine substrate; Amplex Ultra Red/HRP fluorescence.
T1 construct: purchased R&D systems 3957-AO
T1 sequence (Q16853 1-763): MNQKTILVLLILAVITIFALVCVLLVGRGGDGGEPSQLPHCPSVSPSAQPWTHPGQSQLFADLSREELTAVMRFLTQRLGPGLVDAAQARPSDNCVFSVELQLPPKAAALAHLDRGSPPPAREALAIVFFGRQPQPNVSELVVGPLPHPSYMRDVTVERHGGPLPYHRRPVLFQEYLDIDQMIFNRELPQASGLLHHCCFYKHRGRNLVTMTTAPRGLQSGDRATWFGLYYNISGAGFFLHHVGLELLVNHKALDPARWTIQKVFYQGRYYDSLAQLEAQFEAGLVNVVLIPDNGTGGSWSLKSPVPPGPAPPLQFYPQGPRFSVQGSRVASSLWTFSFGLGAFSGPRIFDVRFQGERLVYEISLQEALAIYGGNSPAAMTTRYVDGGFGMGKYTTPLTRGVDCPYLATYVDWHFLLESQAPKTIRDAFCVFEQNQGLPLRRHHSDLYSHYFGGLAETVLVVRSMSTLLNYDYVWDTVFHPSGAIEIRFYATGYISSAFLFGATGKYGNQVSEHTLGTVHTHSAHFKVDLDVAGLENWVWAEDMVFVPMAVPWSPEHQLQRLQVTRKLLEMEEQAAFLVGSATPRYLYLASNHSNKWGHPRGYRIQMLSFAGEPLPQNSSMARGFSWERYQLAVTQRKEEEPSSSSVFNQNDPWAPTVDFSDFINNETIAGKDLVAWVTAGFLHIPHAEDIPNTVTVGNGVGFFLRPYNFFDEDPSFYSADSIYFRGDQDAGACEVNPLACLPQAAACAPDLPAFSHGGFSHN
Assay type: biochemical
Description: Example B-1: Human Semicarbazide-Sensitive Amine Oxidase (SSAO) Assay
Compounds were dissolved in DMSO to provide a Concentration Response Curve (CRC; at 500 times the final concentration) over a range of 6-10 dilutions.
Recombinant Human SSAO/VAP-1/AOC3 (R&D systems; Catalog #3957-AO) was used to screen compound potency in vitro, according to previously described methods (J Pharmacol Exp Ther. 2013 November; 347(2):365-74). SSAO enzyme was suspended in 50 mM HEPES buffer to a working concentration of 2.5 μg/ml and 40 μL of this enzyme mixture was then added to each well of a F16 Black Maxisorp 96 well Plate (Nunc, Catalog #475515). Ten microliters of each test compound (at 5 times the final concentration) were added to each well, resulting in a final well volume of 50 μL of the enzyme and inhibitor mixture. The compounds were preincubated with the enzyme for 30 minutes at 37° C., prior to the addition of a 40 μL volume of Amplex Ultra Red (125 uM AUR; Molecular Probes, Catalog #A36006)/Horseradish peroxidase (2.5 U/ml HRP; Sigma-Aldrich Catalog #P8375) oxidase detection reagent containing cytochrome C (7.5 μM; Sigma-Aldrich Catalog #C7752). Cytochrome C was included in the AUR/HRP detection mixture to reduce the background fluorescence that can occur via the spontaneous redox reaction between AUR and HRP. The SSAO enzyme reaction was then initiated by adding 10 μL of the SSAO substrate, benzylamine (Sigma-Aldrich Catalog #B5136), and SSAO activity was measured in kinetic mode over a 30-120 minute sampling period (excit. 544 nm; emit 590 nm; cut off 570 nm; medium gain) to obtain IC50 values for enzyme activity in each treatment well.

IC50, ≤ 10 nM:
COC1(CNC(=O)C23CCC(c4ccc(OC/C(=C/F)CN)cc4)(CC2)CC3)CCCCC1 [Compound 2.102, (E)-4-(4-((2-(aminomethyl)-3-fluoroallyl)oxy)phenyl)-N-((1-methoxycyclohexyl)methyl) bicyclo[2.2.2]octane-1-carboxamide]
CO[C@H]1CC[C@H](NC(=O)C23CCC(c4ccc(OC/C(=C/F)CN)cc4)(CC2)CC3)CC1 [Compound 2.104, 4-(4-(((E)-2-(aminomethyl)-3-fluoroallyl)oxy)phenyl)-N-((1r,4r)-4-methoxycyclohexyl)bicyclo[2.2.2] octane-1-carboxamide]
COCCO[C@H]1CC[C@H](NC(=O)C23CCC(c4ccc(OC/C(=C/F)CN)cc4)(CC2)CC3)CC1 [Compound 2.142, 4-(4-(((E)-2-(aminomethyl)-3-fluoroallyl)oxy)phenyl)-N-((1r,4r)-4-(2-methoxyethoxy)cyclohexyl)bicyclo [2.2.2]octane-1-carboxamide]
CC(C)(C)O[C@H]1C[C@@H](NC(=O)C23CCC(c4ccc(OC/C(=C/F)CN)cc4)(CC2)CC3)C1 [Compound 2.149, 4-(4-(((E)-2-(aminomethyl)-3-fluoroallyl)oxy)phenyl)-N-((1s,3s)-3-(tert-butoxy)cyclobutyl)bicyclo[2.2.2] octane-1-carboxamide]
NC/C(=C\F)COc1ccc(C23CCC(C(=O)NC4(C(F)(F)F)CCOCC4)(CC2)CC3)cc1 [Compound 2.152, (E)-4-(4-((2-(aminomethyl)-3-fluoroallyl)oxy)phenyl)-N-(4-(trifluoromethyl)tetrahydro-2H-pyran-4-yl)bicyclo[2.2.2]octane-1-carboxamide]
CO[C@H]1CC[C@H](NC(=O)C23CC(c4ccc(OC/C(=C/F)CN)cc4)(C2)C3)CC1 [Compound 3.04, 3-(4-(((E)-2-(aminomethyl)-3-fluoroallyl)oxy)phenyl)-N-((1r,4r)-4-methoxycyclohexyl)bicyclo[1.1.1] pentane-1-carboxamide]
